# Article PMC10287695, “Non-covalent inhibitors of thioredoxin glutathione reductase with schistosomicidal activity in vivo” (Nature Communications, 2023)
# “And” between values parts separate entries of the source, which are not always exact repeats. Equal values may be shown once. Marks after values point to notes of the source that are not given here.
# Legend:
# Vero cells = test: Cytotoxicity in mammalian cells (Cell Titer Glo); assay type: cell-based
# Experimental: Following overnight incubation, formulated DMSO-compound stock solutions were diluted with DMEM at <1% DMSO final concentrations. […] Vero cells treated similarly with different concentrations of PZQ, MZM and AF (Cayman Chemicals) were used as positive controls.
# Human TrxR1 = target: T1, Human TrxR1 (Homo sapiens, UniProt Q16881); test: Human TrxR1 enzyme inhibition (DTNB reduction); assay type: biochemical
# T1 construct: made in house
# T1 sequence (Q16881 1-499 isoform Q16881-5): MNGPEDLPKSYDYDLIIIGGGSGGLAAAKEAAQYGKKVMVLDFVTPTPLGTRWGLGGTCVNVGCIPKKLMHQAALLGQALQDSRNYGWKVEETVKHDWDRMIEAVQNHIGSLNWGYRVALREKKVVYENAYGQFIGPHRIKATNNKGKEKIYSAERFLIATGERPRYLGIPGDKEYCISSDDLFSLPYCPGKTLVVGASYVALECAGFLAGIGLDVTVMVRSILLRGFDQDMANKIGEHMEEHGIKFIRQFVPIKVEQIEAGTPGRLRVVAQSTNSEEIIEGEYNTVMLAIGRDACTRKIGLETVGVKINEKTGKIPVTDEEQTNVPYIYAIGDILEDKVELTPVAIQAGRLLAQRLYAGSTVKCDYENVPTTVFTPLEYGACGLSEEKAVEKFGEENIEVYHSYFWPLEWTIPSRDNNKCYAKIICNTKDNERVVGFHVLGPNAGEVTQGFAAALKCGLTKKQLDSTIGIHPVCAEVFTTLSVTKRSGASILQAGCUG
# TGR = target: T2, TGR (Schistosoma mansoni, UniProt Q962Y6); test: Thermal shift assay (TSA); assay type: binding; design: key to Avg. Tm / Tm, replicate 1-3: Tm in °C, from a 25–95 °C melt curve
# T2 construct: made in house
# T2 sequence (Q962Y6 1-598): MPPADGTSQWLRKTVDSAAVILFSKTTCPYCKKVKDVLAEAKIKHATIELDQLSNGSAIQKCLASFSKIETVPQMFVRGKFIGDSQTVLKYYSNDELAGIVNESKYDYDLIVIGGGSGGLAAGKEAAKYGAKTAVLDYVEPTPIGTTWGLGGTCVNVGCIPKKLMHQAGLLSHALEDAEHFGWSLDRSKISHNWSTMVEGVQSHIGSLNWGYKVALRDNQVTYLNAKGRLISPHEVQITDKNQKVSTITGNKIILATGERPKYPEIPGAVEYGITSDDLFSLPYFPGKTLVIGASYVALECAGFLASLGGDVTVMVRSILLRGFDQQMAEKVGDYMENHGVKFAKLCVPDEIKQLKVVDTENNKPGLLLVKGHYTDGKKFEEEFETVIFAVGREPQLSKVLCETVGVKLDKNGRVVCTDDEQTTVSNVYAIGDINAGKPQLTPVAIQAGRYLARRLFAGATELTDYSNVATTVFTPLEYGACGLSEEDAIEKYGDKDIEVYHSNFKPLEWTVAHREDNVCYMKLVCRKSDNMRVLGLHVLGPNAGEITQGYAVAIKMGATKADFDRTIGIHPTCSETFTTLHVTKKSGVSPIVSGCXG
# Experimental: Samples were prepared by using a final concentration of 0.25 mg/ml TGR diluted in TGR reaction buffer to the desired volume. To evaluate reduced TGR, 500 µM NADPH was added. […] After the preincubation period, 20 µL samples were pipetted into a BioRad un-skirted PCR 96 well plate and sealed with MicroAmp^TM Optical Adhesive film. The plate was then centrifuged for 5 min at 1000 × g. TSA was carried out using a BioRad CFX Connect qPCR instrument with a melt curve setting of 25 − 95 °C, in increments of 0.5 °C/10 seconds. The SYBR green channel was used to detect fluorescence as the wavelength of flavin fluorescence overlaps with that of SYBR green. BioRad CFX Maestro 5.2 was used to analyze TSA data.
# S. mansoni TGR = target: T3, S. mansoni TGR (Schistosoma mansoni, UniProt Q962Y6); test: S. mansoni TGR enzyme inhibition (DTNB reduction); assay type: biochemical
# T3 construct: made in house
# T3 sequence (Q962Y6 1-598): T2 sequence (Q962Y6 1-598)
# S. mansoni adult worms = test: Schistosomicidal activity ex vivo, adult worms (Cell Titer Glo), alone or with channel blockers; assay type: cell-based
# How it was run: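 Worms recovered from infected Swiss-Webster mice and cultured overnight, then exposed in triplicate to compounds in RPMI (juvenile, adult) at <1% DMSO; 5 µM AF as positive control. Viability calculated as test mean over DMSO-control mean ×100; adult worms read by CellTiter-Glo, alone or with channel blockers.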
structure (smiles),measurement,setting,value
CC1C(NCc2cn(C3OCC(O)C(O)C3O)c3ccccc23)CC2CC1C2(C)C (stereo not shown) [Compound 9],LD50 ex vivo VERO,"Vero cells; African green monkey, 24 h",>50^a µM
same,EC50,"Vero cells; Chlorocebus sabaeus, Vero, estimate from raw data, read-out: EC50 viability of Vero cells",> 200 µM
same,IC50,"Human TrxR1; 15 min preincubation (enzyme + 100 µM NADPH + compound), read-out: Human TrxR1 IC50",70.5 ± 11.4 µM
same,inhibition at 15 µM,"Human TrxR1; hsTrxR, 15 minutes pre-incubation, compound 15 µM",5.09%
same,inhibition at 30 µM,"Human TrxR1; hsTrxR, 15 minutes pre-incubation, compound 30 µM",8.68%
same,inhibition at 66.7 µM,"Human TrxR1; hsTrxR, 15 minutes pre-incubation, compound 66.7 µM, read-out: % inhibition",14.5%
same,shift of Tm of reduced TGR,TGR; 400uM compound,1.5 °C
same,shift of Tm of reduced TGR,TGR; 1mM compound,3 °C
same,Avg. Tm,TGR; TGR + 100 µM compound,74.8
same,"Avg. Tm, + 500 µM NADPH",TGR; TGR + 100 µM compound + 500 µM NADPH,68
same,"Tm, replicate 1-3, + 500 µM NADPH","TGR; TGR + 100 µM compound + 500 µM NADPH, single replicates, in °C (unit assumed)",67.5 and 68 and 69
same,"Tm, replicate 1-3","TGR; TGR + 100 µM compound, single replicates",74.5 (2×) and 75
same,effect on Tm of oxidized TGR,TGR; without NADPH,doesn’t shift the Tm
same,IC50,S. mansoni TGR; 15 min preincubation (enzyme + 100 µM NADPH + compound),57.5 ± 2.46 µM
same,inhibition at 1 µM,"S. mansoni TGR; TGR, 15 minutes pre-incubation, compound 1 µM",3.4%
same,inhibition at 5 µM,"S. mansoni TGR; TGR, 15 minutes pre-incubation, compound 5 µM",11.8%
same,inhibition at 15 µM,"S. mansoni TGR; TGR, 15 minutes pre-incubation, compound 15 µM, read-out: % inhibition",32.6%
same,inhibition at 30 µM,"S. mansoni TGR; TGR, 15 minutes pre-incubation, compound 30 µM, read-out: % inhibition",49.3%
same,inhibition at 66.7 µM,"S. mansoni TGR; TGR, 15 minutes pre-incubation, compound 66.7 µM, read-out: % inhibition",68.2%
same,LD50 ex vivo S. mansoni adult,"S. mansoni adult worms; 24 h exposure, compound alone",>100^a µM and >100 µM
same,viability at 5 µM,"S. mansoni adult worms; Schistosoma mansoni, S. mansoni adult worms, 5 µM, relative to Worm + RPMI control, read-out: % viability",99.2%
same,viability at 15 µM,"S. mansoni adult worms; Schistosoma mansoni, S. mansoni adult worms, 15 µM, relative to Worm + RPMI control, read-out: % viability",91.1%
same,viability at 30 µM,"S. mansoni adult worms; Schistosoma mansoni, S. mansoni adult worms, 30 µM, relative to Worm + RPMI control, read-out: % viability",88.8%
same,viability at 50 µM,"S. mansoni adult worms; Schistosoma mansoni, S. mansoni adult worms, 50 µM, relative to Worm + RPMI control, read-out: % viability",83.3%
same,viability at 100 µM,"S. mansoni adult worms; Schistosoma mansoni, S. mansoni adult worms, 100 µM, relative to Worm + RPMI control, read-out: % viability",78.4%
